According to patent US20260285850A1, “SUBSTITUTED OXAZOLIDINONES AND IMIDAZOLINONES AS HERBICIDES” (FMC CORPORATION, priority 2023, published 2026):

How the values were obtained:
Assay type in all cases: in vivo
[1] = tested on: barnyardgrass (Echinochloa crus-galli); test: Test A preemergence soil spray, visual injury rating 0-100; details: 10 days, 0 = no effect, 100 = complete control
How it was run: (§1)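 Loam-sand pots got test material in surfactant-containing solvent, either as a directed soil spray before emergence or on plants at the one- to two-leaf stage. Visual injury (0-100) was read after ten greenhouse days.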

[2] = tested on: blackgrass (Alopecurus myosuroides); test: as above; details: 10 days, 0 = no effect, 100 = complete control
How it was run: as §1

corn (Zea mays) [3] = test: as above; details: 10 days, 0 = no effect, 100 = complete control
How it was run: as §1

[4] = tested on: green foxtail (Setaria viridis); test: as above; details: 10 days, 0 = no effect, 100 = complete control
How it was run: as §1

kochia (Bassia scoparia) [5] = test: as above; details: 10 days, 0 = no effect, 100 = complete control
How it was run: as §1

[6] = tested on: oat, wild (wild oat, Avena fatua); test: as above; details: 10 days, 0 = no effect, 100 = complete control
How it was run: as §1

[7] = tested on: palmer (palmer amaranth, palmer pigweed, Amaranthus palmeri); test: as above; details: 10 days, 0 = no effect, 100 = complete control
How it was run: as §1

[8] = tested on: ragweed (common ragweed, Ambrosia artemisiifolia); test: as above; details: 10 days, 0 = no effect, 100 = complete control
How it was run: as §1

[9] = tested on: ryegrass, Italian (italian ryegrass, Lolium multiflorum); test: as above; details: 10 days, 0 = no effect, 100 = complete control
How it was run: as §1

soybean (Glycine max) [10] = test: as above; details: 10 days, 0 = no effect, 100 = complete control
How it was run: as §1

[11] = tested on: wheat (Triticum aestivum); test: as above; details: 10 days, 0 = no effect, 100 = complete control
How it was run: as §1

[12] = tested on: barnyardgrass (Echinochloa crus-galli); test: Test A postemergence application, visual injury rating 0-100; details: 10 days
How it was run: as §1

[13] = tested on: blackgrass (Alopecurus myosuroides); test: as above; details: 10 days
How it was run: as §1

corn (Zea mays) [14] = test: as above; details: 10 days
How it was run: as §1

[15] = tested on: galium (catchweed bedstraw, Galium aparine); test: as above; details: 10 days
How it was run: as §1

[16] = tested on: green foxtail (Setaria viridis); test: as above; details: 10 days
How it was run: as §1

[17] = tested on: horseweed (Erigeron canadensis); test: as above; details: 10 days
How it was run: as §1

kochia (Bassia scoparia) [18] = test: as above; details: 10 days
How it was run: as §1

[19] = tested on: oat, wild (wild oat, Avena fatua); test: as above; details: 10 days
How it was run: as §1

[20] = tested on: palmer (palmer amaranth, palmer pigweed, Amaranthus palmeri); test: as above; details: 10 days
How it was run: as §1

[21] = tested on: ragweed (common ragweed, Ambrosia artemisiifolia); test: as above; details: 10 days
How it was run: as §1

[22] = tested on: ryegrass, Italian (italian ryegrass, Lolium multiflorum); test: as above; details: 10 days
How it was run: as §1

soybean (Glycine max) [23] = test: as above; details: 10 days
How it was run: as §1

[24] = tested on: wheat (Triticum aestivum); test: as above; details: 10 days
How it was run: as §1

[25] = tested on: barnyardgrass (Echinochloa crusgalli); test: Test B flooded paddy test, visual plant response rating 0-100; details: 250 g ai/ha, Flood, applied to paddy water, evaluated after 13 days
How it was run: (§2)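 In this flooded assay, 2-leaf seedlings received compound through the water layer, kept at 3 cm over the soil. Plants were held 13 days in a greenhouse and then visually compared with control pots.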

[26] = tested on: ducksalad (Heteranthera limosa); test: as above; details: 250 g ai/ha, Flood, applied to paddy water, evaluated after 13 days
How it was run: as §2

rice (Oryza sativa) = test: as above; details: 250 g ai/ha, Flood, applied to paddy water, evaluated after 13 days
How it was run: as §2

[27] = tested on: sedge, umbrella (small-flower umbrella sedge, Cyperus difformis); test: as above; details: 250 g ai/ha, Flood, applied to paddy water, evaluated after 13 days
How it was run: as §2

[28] = 31 g ai/ha, postemergence, 0 = no effect, 100 = complete control
[29] = Postemergence, 125 g ai/ha, 0 is no effect, 100 is complete control

CCOC(=O)C1=CCC(NC(=O)C2(C)CN(c3cc(F)cc(F)c3)C(=O)O2)C1 (stereo not shown) [Compound 15]
Barnyardgrass plant response rating (0-100) ([1]; 31 g ai/ha): 0 | Barnyardgrass plant response rating (0 to 100 scale) ([1]; 125 g ai/ha): 100 | Blackgrass plant response rating (0-100) ([2]; 31 g ai/ha): 0 | Blackgrass plant response rating (0 to 100 scale) ([2]; 125 g ai/ha): 40 | Corn plant response rating (0-100) (corn (Zea mays) [3]; 31 g ai/ha): 20 | Corn plant response rating (0 to 100 scale) (corn (Zea mays) [3]; 125 g ai/ha): 60 | Foxtail, Green plant response rating (0-100) ([4]; 31 g ai/ha): 30 | Foxtail, Green plant response rating (0 to 100 scale) ([4]; 125 g ai/ha): 100 | Kochia plant response rating (0-100) (kochia (Bassia scoparia) [5]; 31 g ai/ha): 0 | Kochia plant response rating (0 to 100 scale) (kochia (Bassia scoparia) [5]; 125 g ai/ha): 90 | Oat, Wild plant response rating (0-100) ([6]; 31 g ai/ha): 0 | Oat, Wild plant response rating (0 to 100 scale) ([6]; 125 g ai/ha): 50 | Amaranth, Palmer plant response rating (0-100) ([7]; 31 g ai/ha): 50 | Amaranth, Palmer plant response rating (0 to 100 scale) ([7]; 125 g ai/ha): 100 | Ragweed plant response rating (0-100) ([8]; 31 g ai/ha): 0 | Ragweed plant response rating (0 to 100 scale) ([8]; 125 g ai/ha): 0 | Ryegrass, Italian plant response rating (0-100) ([9]; 31 g ai/ha): 80 | Ryegrass, Italian plant response rating (0 to 100 scale) ([9]; 125 g ai/ha): 90 | Soybean plant response rating (0-100) (soybean (Glycine max) [10]; 31 g ai/ha): 0 | Soybean plant response rating (0 to 100 scale) (soybean (Glycine max) [10]; 125 g ai/ha): 30 | Wheat plant response rating (0-100) ([11]; 31 g ai/ha): 50 | Wheat plant response rating (0 to 100 scale) ([11]; 125 g ai/ha): 90 | Barnyardgrass plant response rating (0-100) [12, 28]: 100 | Barnyardgrass plant response rating (0 to 100 scale) [12, 29]: 100 | Blackgrass plant response rating (0-100) [13, 28]: 70 | Blackgrass plant response rating (0 to 100 scale) [13, 29]: 100 | Corn plant response rating (0-100) (corn (Zea mays) [14]; [28]): 100 | Corn plant response rating (0 to 100 scale) (corn (Zea mays) [14]; [29]): 100 | Galium plant response rating (0-100) [15, 28]: 80 | Galium plant response rating (0 to 100 scale) [15, 29]: 90 | Foxtail, Green plant response rating (0-100) [16, 28]: 90 | Foxtail, Green plant response rating (0 to 100 scale) [16, 29]: 90 | Horseweed plant response rating (0-100) [17, 28]: 0 | Horseweed plant response rating (0 to 100 scale) [17, 29]: 0 | Kochia plant response rating (0-100) (kochia (Bassia scoparia) [18]; [28]): 70 | Kochia plant response rating (0 to 100 scale) (kochia (Bassia scoparia) [18]; [29]): 70 | Oat, Wild plant response rating (0-100) [19, 28]: 90 | Oat, Wild plant response rating (0 to 100 scale) [19, 29]: 90 | Amaranth, Palmer plant response rating (0-100) [20, 28]: 50 | Amaranth, Palmer / Pigweed, Palmer plant response rating (0 to 100 scale) [20, 29]: 90 | Ragweed plant response rating (0-100) [21, 28]: 40 | Ragweed plant response rating (0 to 100 scale) [21, 29]: 50 | Ryegrass, Italian plant response rating (0-100) [22, 28]: 80 | Ryegrass, Italian plant response rating (0 to 100 scale) [22, 29]: 90 | Soybean plant response rating (0-100) (soybean (Glycine max) [23]; [28]): 60 | Soybean plant response rating (0 to 100 scale) (soybean (Glycine max) [23]; [29]): 70 | Wheat plant response rating (0-100) [24, 28]: 90 | Wheat plant response rating (0 to 100 scale) [24, 29]: 90 | Plant response rating, Barnyardgrass (0 to 100 scale, 0 is no effect and 100 is complete control) [25]: 60 | Plant response rating, Ducksalad (0 to 100 scale, 0 is no effect and 100 is complete control) [26]: 80 | Plant response rating, Rice (0 to 100 scale, 0 is no effect and 100 is complete control) (rice (Oryza sativa)): 65 | Plant response rating, Sedge, Umbrella (0 to 100 scale, 0 is no effect and 100 is complete control) [27]: 70
